Assay results reported in patent publication US4435574A, “2,6-Dimethyl-3,5-dicarbomethoxy-4-(ortho -di-fluoromethylthiophenyl)-1,4-dihydropyridine” (priority 1981, dated 1984).
“And” between values parts separate entries of the source, which are not always exact repeats. Equal entries are not always repeated. “Also recorded” adds a separate entry of the source. Where two headings read alike, the source gives them in different places.

Assays:
[1] = tested on: coronary blood flow; details: prior-art compound, in words; cited from earlier work
[2] = tested on: coronary blood flow; assay: Volume rate of the coronary blood flow in anesthetized cats, intravenous; assay type: in vivo; details: for Effective period / Increase in coronary blood flow: intravenous
[3] = prior-art compound, in words; cited from earlier work
[4] = Acute toxicity in breedless white mice, intraperitoneal; assay type: in vivo; details: mouse, in vivo, ip; intraperitoneal administration to white mice
Description: (§1) In experiments carried out in breedless white mice, the proposed compound, administered intraperitoneally, has been investigated for acute toxicity.

[5] = tested on: white mice; assay: as above; assay type: in vivo; details: in words
Description: as §1

[6] = Light stability; assay type: physicochemical; details: in words
[7] = tested on: arterial blood pressure of anesthetized cats; assay: Reduction of arterial blood pressure by 30 percent (ED30) in anesthetized cats; assay type: in vivo; details: for ED30: Felis catus, read-out: ED30 (effective dose that reduces arterial blood pressure by 30 percent)
[8] = Solubility; assay type: physicochemical
[9] = tested on: spontaneously hypertensive rats; assay: Systolic arterial pressure in awake spontaneously hypertensive female rats of the Okamoto-Aoki line, intragastric; assay type: in vivo; details: for Hypotensive effect, %, upon administration to spontaneously hypertensive rats: into the stomach
Description: Investigation of the pharmacological action of 2,6-dimethyl-3,5-dicarbomethoxy-4-(o-difluoromethylthiophenyl)-1,4-dihydropyridine upon parameters characterizing the performance of the cardiovascular system has been carried out in anesthetized cats, as well as in rats.
In the conditions as stated above, the proposed compound exceeded the SKF-24260 compound approximately 3 times with respect to both hypotensive activity and active period (see Table 1).
24 hours after administration of the proposed compound in a dose of 10 mg/kg, the systolic arterial pressure was down by a further 21.4±2.7%.

[10] = tested on: white mice; details: prior-art compound, in words; cited from earlier work
[11] = tested on: arterial blood pressure of anesthetized cats; details: prior-art compound, in words; cited from earlier work

For `COC(=O)C1=C(C)NC(C)=C(C(=O)OC)C1c1ccccc1[N+](=O)[O-]` [Adalate, 2,6-dimethyl-3,5-dicarbomethoxy-4-(o-nitrophenyl)-1,4-dihydropyridine, reference compound], the Coronarodilating activity [1] is listed as “high coronarodilating activity”, the Effective period ([2]; 0.05 mg/kg) is listed as 35 min and the “Increase in coronary blood flow” value ([2]; 0.05 mg/kg) is listed as 90%. For the same molecule, the Sensitivity to light [3] was “highly sensitive to light, decomposing rapidly in the presence of light”.

For `COC(=O)C1=C(C)NC(C)=C(C(=O)OC)C1c1ccccc1SC(F)F` [Proposed compound, 2,6-dimethyl-3,5-dicarbomethoxy-4-(o-difluoromethylthiophenyl)-1,4-dihydropyridine], the LD50 [4] was 93 mg/kg, the Toxicity [5] was “low toxicity” and the “Toxicity compared with SKF-24260” value ([5]; intraperitoneal, mice) was “considerably lower; also recorded: considerably less toxic”. For the same molecule, the Sensitivity to light [6] was “light-resistant”, the ED30 [7] was 0.019 mg/kg and the “Hypotensive effect compared with SKF-24260” value ([7]; acute experiments, 50% aqueous dimethylacetamide, in words) was “same hypotensive effect”. The “Solubility in organic solvents” value ([8]; organic solvents) was “soluble in organic solvents”, the Solubility in water ([8]; water) was “insoluble in water” and the Effective period ([2]; 0.05 mg/kg) was 30 min. The “Increase in coronary blood flow” value ([2]; 0.05 mg/kg) was 103%, the Effective period ([2]; 0.1 mg/kg) was 65 min and the “Increase in coronary blood flow” value ([2]; 0.1 mg/kg) was 150%. For the same molecule, the Coronarodilating effect ([2]; in words) was “pronounced coronarodilatory action; also recorded: capable of producing a coronarodilating effect”, the “Coronarodilating effect compared with Adalate” value ([2]; in words) was “comparable with that of Adalate; also recorded: comparable with the coronarodilatory action of Adalate” and the Systolic arterial pressure ([9]; 1 mg/kg and 10 mg/kg into the stomach, in words) was “dropped considerably”. The “Hypotensive effect, %, upon administration to spontaneously hypertensive rats” value (“Hypotensive effect, %” below) ([9]; after 6 hours, 1 mg/kg) was 19.5%, the “Hypotensive effect, %” value ([9]; after 6 hours, 10 mg/kg) was 54.8% and the “Hypotensive effect, %” value ([9]; after 24 hours, 10 mg/kg, 10 mg/kg) was 21.4±2.7% and 21.4%. For the same molecule, the “Duration of hypotensive activity” value ([9]; in words) was “prolonged duration; also recorded: highly prolonged hypotensive activity” and the “Duration of hypotensive action (active period) relative to SKF-24260” value ([9]; spontaneously hypertensive rats) was “approximately 3 times”.

In the case of `CCOC(=O)C1=C(C)NC(C)=C(C(=O)OCC)C1c1ccccc1C(F)(F)F` [SKF-24260, 2,6-dimethyl-3,5-dicarbothoxy-4-(o-trifluoromethylphenyl)-1,4-dihydropyridine, reference compound], the LD50 [4] is given as 38.5 mg/kg, the Toxicity [10] is given as “high toxicity” and the ED30 [7] is given as 0.022 mg/kg. The “Duration of hypotensive effect” value [11] was “short duration”, the Hypotensive activity [11] was “appreciable hypotensive activity” and the “Systolic arterial pressure after 24 hours” value ([9]; 10 mg/kg, 24 hours, result in words) was “return to the initial value or increase above the initial level; also recorded: Initial”. The “Hypotensive effect, %” value ([9]; after 6 hours, 1 mg/kg) was 6.0% and the “Hypotensive effect, %” value ([9]; after 6 hours, 10 mg/kg) was 15.8%.
